Results on 8 compounds are retold here after patent US11377441B2, “Covalent inhibitors of KRAS” (Araxes Pharma LLC, priority 2017, dated 2022).

The target of this experiment is T1, KRAS G12C 1-169, his-tagged protein, GDP-loaded (Homo sapiens, UniProt P01116, G12C).
T1 construct: KRAS G12C 1-169, his-tagged protein, GDP-loaded
Briefly: Biochemical assay: covalent modification of KRAS G12C measured by mass spectrometry (RapidFire/TOF or Q-Exactive). The experiment is classed as binding. The conditions noted are these: covalent binding to (modification of) KRAS G12C after a ten minute incubation period. A digest of the protocol: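 GDP-loaded KRAS G12C 1-169 (his-tagged) at 2 μM or 0.5 μM in 20 mM Hepes, 150 mM NaCl, 1 mM MgCl2, incubated with compound at 100, 30 or 10 μM at room temperature for 10 min, 30 min, 2 h or 24 h, then quenched with formic acid. Intact-protein LC-MS, deconvolved; percent modification from modified versus unmodified protein.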
`C=CC(=O)N1C[C@H](C)N(c2nc(N3CC(N(C)C)C3)nc3c(F)c(-c4cccc5ncccc45)c(Cl)cc23)C[C@H]1C` [Compound 44, 1-((2R,5S)-4-(6-chloro-2-(3-(dimethylamino)azetidin-1-yl)-8-fluoro-7-(quinolin-5-yl)quinazolin-4-yl)-2,5-dimethylpiperazin-1-yl)prop-2-en-1-one]: the Binding % entry is given as “++ (++ indicates binding activity from 50 to 80%)”.

As to `C=CC(=O)N1C[C@H](C)N(c2nc(OC[C@@H]3CCCN3C)nc3c(F)c(-c4c(C)ccc5[nH]nc(C6CC6)c45)c(Cl)cc23)C[C@H]1C` (atropisomer, axis not shown) [Compound 227, 1-((2R,5S)-4-((S)-6-chloro-7-(3-cyclopropyl-5-methyl-1H-indazol-4-yl)-8-fluoro-2-(((S)-1-methylpyrrolidin-2-yl)methoxy)quinazolin-4-yl)-2,5-dimethylpiperazin-1-yl)prop-2-en-1-one], the Binding % result is “+ (+ indicates binding activity greater than 0% and up to 50%)”.

For `C=CC(=O)N1C[C@H](C)N(c2nc(N3CC(N(C)C)C3)nc3c(F)c(-c4cccc5occc45)c(Cl)cc23)C[C@H]1C` [Compound 130, 1-((2R,5S)-4-(7-(benzofuran-4-yl)-6-chloro-2-(3-(dimethylamino)azetidin-1-yl)-8-fluoroquinazolin-4-yl)-2,5-dimethylpiperazin-1-yl)prop-2-en-1-one], the Binding % result is given as “++ (++ indicates binding activity from 50 to 80%)”.

As for `C=CC(=O)N1C[C@H](C)N(c2nc(OC[C@H]3CC(F)(F)CN3C)nc3c(F)c(-c4c(C)ccc5cnn(C)c45)c(Cl)cc23)C[C@H]1C` [Compound 241, 1-((2R,5S)-4-(6-chloro-2-(((R)-4,4-difluoro-1-methylpyrrolidin-2-yl)methoxy)-7-(1,6-dimethyl-1H-indazol-7-yl)-8-fluoroquinazolin-4-yl)-2,5-dimethylpiperazin-1-yl)prop-2-en-1-one], the Binding % result is “+ (+ indicates binding activity greater than 0% and up to 50%)”.

With `C=CC(=O)N1C[C@H](C)N(c2nc(OCCN3CCOCC3)nc3c(F)c(-c4c(C)ccc5[nH]nc(C6CC6)c45)c(Cl)cc23)C[C@H]1C` (atropisomer, axis not shown) [Compound 113, 1-((2R,5S)-4-((R)-6-chloro-7-(3-cyclopropyl-5-methyl-1H-indazol-4-yl)-8-fluoro-2-(2-morpholinoethoxy)quina-zolin-4-yl)-2,5-dimethylpiperazin-1-yl)prop-2-en-1-one], the Binding % result is recorded as “++ (++ indicates binding activity from 50 to 80%)”.

Consider `C=CC(=O)N1[C@H](C)CN(c2nc(N3CC(N(C)C)C3)nc3c(F)c(-c4c(C)ccc5[nH]nc(N)c45)c(Cl)cc23)C[C@@H]1C` [Compound 41, 1-((2S,6R)-4-(7-(3-amino-5-methyl-1H-indazol-4-yl)-6-chloro-2-(3-(dimethylamino)azetidin-1-yl)-8-fluoroquinazolin-4-yl)-2,6-dimethylpiperazin-1-yl)prop-2-en-1-one], for which the Binding % entry was “+++ (+++ indicates binding activity greater than 80%)”.

Regarding `C=CC(=O)N1C[C@H](C)N(c2nc(OCCN3CCC(F)(F)C3)nc3c(F)c(-c4c(C)ccc5[nH]nc(N)c45)c(Cl)cc23)C[C@H]1C` (atropisomer, axis not shown) [Compound 67, 1-((2R,5S)-4-((R)-7-(3-amino-5-methyl-1H-indazol-4-yl)-6-chloro-2-(2-(3,3-difluoropyrrolidin-1-yl)ethoxy)-8-fluoroquinazolin-4-yl)-2,5-dimethylpiperazin-1-yl)prop-2-en-1-one], the Binding % entry is “+++ (+++ indicates binding activity greater than 80%)”.

`C=CC(=O)N1C[C@H](C)N(c2nc(OCCN3CCN(C)CC3)nc3c(F)c(-c4c(C)ccc5cnn(C)c45)c(Cl)cc23)C[C@H]1C` (atropisomer, axis not shown) [Compound 168, 1-((2R,5S)-4-((S)-6-chloro-7-(1,6-dimethyl-1H-indazol-7-yl)-8-fluoro-2-(2-(4-methylpiperazin-1-yl)ethoxy)quinazolin-4-yl)-2,5-dimethylpiperazin-1-yl)prop-2-en-1-one]: the Binding % result is “+ (+ indicates binding activity greater than 0% and up to 50%)”.
